# From patent publication US20150147417A1, “METHOD AND PHARMACEUTICAL COMPOSITION FOR LIVER FIBROSIS PREVENTION AND/OR TREATMENT” (National Dong Hua University, priority 2013, published 2015)
# Assays:
# Format in all cases: cell-based, male Sprague-Dawley rat
# MMP2 [1] = experiment: MMP2 level (gelatin zymography) in THSC; conditions: curcumin 25 μM, except 24 h treatment
# Description: (§1) Protein expression level was determined by western blotting and normalized with β-actin. Data are normalized to normal control (N) and expressed as mean±SEM in triplicate determinations. a, vs. N; b, vs. Cur. *, p<0.05; **, p<0.01; ***, p<0.001. Non-induced hepatic stellate cells (NHSC, purity >95%) were isolated from male Sprague-Dawley rat liver, and Thioacetamide (TAA; Fluka Chemie GmbH, Buchs, Switzerland)-induced hepatic stellate cells (THSC, purity >95%) were isolated from TAA-induced fibrotic liver of male Sprague-Dawley rat (Chang et al., 2009). Both cells were maintained in complete DMEM containing 10% heat-inactivated FBS and 1% penicillin/streptomycin. The activity of MMP2 was assayed by gelatine zymography, which can detect the active form and latent form of MMP2. NHSC and THSC (2×10^5 cells) were seeded in 6 well plates and incubated for 70 to 80% confluence. Cells were starved in DMEM containing 0.1% BSA for 6 h, and then treated with various concentrations of BL extract (100, 250, and 500 μg/ml) or curcumin (25 μM) for 12 and 24 h. Media were collected and centrifuged at 12,000×g for 30 min at 4° C. The supernatants were collected and protein concentration was quantified by Bradford dye (Bio-Rad). 8% SDS-PAGE gels were prepared containing 10% gelatin. […] Gels were scanned using Epson scanner and quantified using multi-gauge software (Fujifilm).
# [2] = test system: NHSC (non-induced hepatic stellate cells); experiment: Oil red O staining of lipid droplets; conditions: curcumin 25 μM, 12 and 24 h, compared to BL extract treated cells
# Description: (§2) Non-induced hepatic stellate cells (NHSC, purity >95%) were isolated from male Sprague-Dawley rat liver, and Thioacetamide (TAA; Fluka Chemie GmbH, Buchs, Switzerland)-induced hepatic stellate cells (THSC, purity >95%) were isolated from TAA-induced fibrotic liver of male Sprague-Dawley rat (Chang et al., 2009). Both cells were maintained in complete DMEM containing 10% heat-inactivated FBS and 1% penicillin/streptomycin. NHSC and THSC cells (1×10^5 cells) were seeded in 6 well plates and incubated at 37° C. overnight. Then, cells were treated with various concentrations of BL extract (100, 250, and 500 μg/ml) or curcumin (25 μM) for 12 and 24 h. Cells were washed twice with PBS and fixed with pre-warmed 3.7% paraformaldehyde for 10 min. Cells were then stained with diluted Oil red O stock solution 0.5% (w/v) in isopropanol (Fluka; buffer/water=3/2) at room temperature for 1 h under the dark. Cells were washed with 50% isopropanol and counter-stained with Hematoxylin (Sigma-Aldrich) for 1 min. Results were photographed using Olympus CKX-41 (Olympus Corporation, Tokyo, Japan). Two kinds of hepatic stellate cells were used; that is, Non-chemical induced hepatic stellate cells (NHSC), and thioacetamide-induced hepatic stellate cells (THSC) for imitating a naturally-occurred activated HSC. […]
# [3] = test system: THSC (thioacetamide-induced hepatic stellate cells); experiment: Oil red O staining of lipid droplets; conditions: curcumin 25 μM, 12 and 24 h, compared to BL extract treated cells
# Description: as §2
# THSC = experiment: Western blotting of protein expression levels; conditions: curcumin 25 μM
# Description: (§3) Non-induced hepatic stellate cells (NHSC, purity >95%) were isolated from male Sprague-Dawley rat liver, and Thioacetamide (TAA; Fluka Chemie GmbH, Buchs, Switzerland)-induced hepatic stellate cells (THSC, purity >95%) were isolated from TAA-induced fibrotic liver of male Sprague-Dawley rat (Chang et al., 2009). Both cells were maintained in complete DMEM containing 10% heat-inactivated FBS and 1% penicillin/streptomycin. NHSC and THSC (5×10^5 cells) were seeded in 6 cm dish and grown till 80% confluence, and then incubated with various concentrations of BL extract (100, 250, and 500 μg/ml) or curcumin (25 μM) for 12 and 24 h. Cells were collected and lysed with RIPA buffer (150 mM NaCl, 0.1% Triton X-100, 0.5% sodium deoxycholate, 0.1% SDS, 50 mM Tris-HCl, pH 8.0). Protease inhibitor (Roche Applied Science, Mannheim, Germany) containing pancreas extract, thermolysin, chymotrypsin, trypsin, and papain was mixed with 50 ml RIPA buffer before use. Protein samples (30 μg/well) were loaded and separated with SDS-PAGE, and then transferred to PVDF membrane (PerkinElmer, Turku, Finland). The membrane was blocked with 5% non-fat milk in TBST (20 mM Tris-HCl, pH 7.4, 137 mM NaCl, and 0.05% Tween-20) at room temperature for 1 h. The membranes were incubated with primary antibodies (Table 1) at 4° C. overnight. The membranes were washed 3 times with TBST and then incubated with horseradish peroxidase (HRP)-conjugated secondary antibodies at room temperature for 1 h. Following incubation with HRP-conjugated secondary antibodies, membranes were treated with ECL reagents (PerkinElmer) for 1 min, and results were developed on LAS-3000 film (Fujifilm, Tokyo, Japan).
# NHSC = experiment: Western blotting of protein expression levels; conditions: curcumin 25 μM
# Description: as §3
# MMP2 [4] = experiment: MMP2 level (gelatin zymography) in NHSC; conditions: curcumin 25 μM
# Description: as §1
compound,measurement,setting,value
COc1cc(/C=C/C(=O)CC(=O)/C=C/c2ccc(O)c(OC)c2)ccc1O [curcumin],expression level of MMP2,MMP2 [1],can reduce
same,lipid droplets (Oil red O),[2],Fewer lipid droplets were increased
same,lipid droplets (Oil red O),[3],Fewer lipid droplets were increased
same,expression level of TIMP2,"THSC; 24 h, vs normal control",significantly reduced
same,Col 1 expression level,THSC; except 24 h treatment,failed to reduce
same,TGF-β1 level,THSC; except 24 h treatment,cannot reduce
same,α-SMA expression level,THSC; except 24 h treatment,failed to reduce
same,Col 1 expression level,NHSC,failed to reduce
same,TGF-β1 level,NHSC,cannot reduce
same,TGF-β R1 level,NHSC,significantly reduced
same,α-SMA expression level,NHSC,failed to reduce
same,expression level of TIMP2,"NHSC; 24 h, vs normal control",significantly reduced
same,expression level of MMP2,MMP2 [4],can reduce
